Experimental data reported in US20240208912A1 (Mirati Therapeutics, Inc., priority 2021, published 2024).
Where two headings read alike, the source gives them in different places.

Columns and labels:
PRMT5/MEP50 complex = target: T1, PRMT5/MEP50 complex (Homo sapiens, UniProt O14744); experiment: PRMT5:MEP50 HotSpot Assay (full-length histone H2A substrate, plus and minus MTA); type: biochemical; settings: IC50 + 2 μM MTA, in the presence of 2 μM MTA
T1 construct: purchased Reaction Biology Corporation
T1 sequence (O14744 2-637 limits assumed): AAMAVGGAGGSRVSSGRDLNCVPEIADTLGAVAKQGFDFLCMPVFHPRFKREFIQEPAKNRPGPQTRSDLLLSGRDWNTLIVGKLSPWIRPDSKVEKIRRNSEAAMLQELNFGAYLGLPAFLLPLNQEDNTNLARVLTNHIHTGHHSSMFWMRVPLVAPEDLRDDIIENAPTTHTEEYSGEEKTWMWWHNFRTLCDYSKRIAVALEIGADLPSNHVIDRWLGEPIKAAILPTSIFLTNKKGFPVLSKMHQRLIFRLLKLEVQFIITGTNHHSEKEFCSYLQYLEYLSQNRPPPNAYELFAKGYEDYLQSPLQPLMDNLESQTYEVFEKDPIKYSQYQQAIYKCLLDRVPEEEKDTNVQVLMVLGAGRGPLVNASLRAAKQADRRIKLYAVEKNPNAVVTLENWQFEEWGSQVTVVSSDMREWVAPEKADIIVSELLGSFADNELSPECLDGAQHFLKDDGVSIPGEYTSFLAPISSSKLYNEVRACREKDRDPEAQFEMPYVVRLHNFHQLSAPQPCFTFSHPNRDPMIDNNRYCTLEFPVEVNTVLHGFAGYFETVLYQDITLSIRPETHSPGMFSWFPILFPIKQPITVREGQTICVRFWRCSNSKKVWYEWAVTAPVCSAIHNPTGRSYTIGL
T1 sequence (Q9BQA1 2-342 partner limits assumed): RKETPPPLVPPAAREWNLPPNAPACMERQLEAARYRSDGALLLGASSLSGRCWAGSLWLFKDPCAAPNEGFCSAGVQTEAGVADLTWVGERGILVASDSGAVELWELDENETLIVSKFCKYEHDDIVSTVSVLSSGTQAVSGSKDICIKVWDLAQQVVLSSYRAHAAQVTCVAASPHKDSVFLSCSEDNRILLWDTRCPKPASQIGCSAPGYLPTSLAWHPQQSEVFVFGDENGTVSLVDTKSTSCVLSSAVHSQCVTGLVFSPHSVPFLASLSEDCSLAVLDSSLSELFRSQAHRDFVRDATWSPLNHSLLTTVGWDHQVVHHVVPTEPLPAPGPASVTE
Procedure, shortened: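 Tritiated product on full-length recombinant H2A was counted by scintillation after the stopped reaction was captured on filter paper. Substrate is histone H2A; conditions include plus and minus MTA.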

[1] = tested on: HCT116 homozygous MTAP knockout cells; experiment: Proliferation assay (CellTiter-Glo, 10 days) in HCT116 homozygous MTAP knockout cells; type: cell-based; settings: CellTiter-Glo after 10 days of treatment, read-out: Proliferation IC50 (nM) HCT116 MTAP_KO
Procedure, shortened: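 CellTiter-Glo viability read on day 11 gives a 10-day IC50. Dosing began one day after seeding, with a 1:10 split into fresh drug-containing medium on day 6. Cells are HCT116 lacking both MTAP alleles via CRISPR/Cas9, run alongside the parental line.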

Structure (SMILES): C[C@H]1C[C@@H]1Oc1ccc(F)c(-c2c(-c3ccc4c(=O)[nH]nc(CN)c4c3)cnn2C)c1C#N (single isomer, unassigned) [Example 16-68]
- IC50 (PRMT5/MEP50 complex): 52.4 nM
- IC50 [1]: 41 nM

Structure (SMILES): Cn1ncc(-c2ccc3c(=O)[nH]nc(CN)c3c2)c1-c1c(C#N)ccc2c1COC2 (single isomer, unassigned) [Example 16-69, (M)-4-[4-[4-(aminomethyl)-1-oxo-2H-phthalazin-6-yl]-2-methyl-pyrazol-3-yl]-1,3-dihydroisobenzofuran-5-carbonitrile]
- IC50 (PRMT5/MEP50 complex): 6540 nM
- IC50 [1]: 10200 nM

Structure (SMILES): Cn1ncc(-c2ccc3c(=O)[nH]nc(CN)c3c2)c1-c1c(C#N)ccc2c1COC2 (single isomer, unassigned) [Example 16-70, (P)-4-[4-[4-(aminomethyl)-1-oxo-2H-phthalazin-6-yl]-2-methyl-pyrazol-3-yl]-1,3-dihydroisobenzofuran-5-carbonitrile]
- IC50 (PRMT5/MEP50 complex): 542 nM
- IC50 [1]: 462 nM

Structure (SMILES): CCOc1cc(-c2cnn(C)c2-c2c(F)c(C)cc(OC3CC3)c2C#N)cc2c(CN)n[nH]c(=O)c12 (single isomer, unassigned) [Example 16-75, (P)-2-[4-[4-(aminomethyl)-8-ethoxy-1-oxo-2H-phthalazin-6-yl]-2-methyl-pyrazol-3-yl]-6-(cyclopropoxy)-3-fluoro-4-methyl-benzonitrile]
- IC50 (PRMT5/MEP50 complex): 5030 nM
- IC50 [1]: 420 nM

Structure (SMILES): CCOc1cc(-c2cnn(C)c2-c2c(F)c(C)cc(OC3CC3)c2C#N)cc2c(CN)n[nH]c(=O)c12 (single isomer, unassigned) [Example 16-76, (M)-2-[4-[4-(aminomethyl)-8-ethoxy-1-oxo-2H-phthalazin-6-yl]-2-methyl-pyrazol-3-yl]-6-(cyclopropoxy)-3-fluoro-4-methyl-benzonitrile]
- IC50 (PRMT5/MEP50 complex): 111 nM
- IC50 [1]: 41 nM

Structure (SMILES): CCOc1cc(-c2cnn(C)c2-c2c(F)c(Cl)cc(OC3CC3)c2C#N)cc2c(CN)n[nH]c(=O)c12 (single isomer, unassigned) [Example 16-77, (P)-2-[4-[4-(aminomethyl)-8-ethoxy-1-oxo-2H-phthalazin-6-yl]-2-methyl-pyrazol-3-yl]-4-chloro-6-(cyclopropoxy)-3-fluoro-benzonitrile]
- IC50 (PRMT5/MEP50 complex): 4100 nM
- IC50 [1]: 264 nM

Structure (SMILES): CCOc1cc(-c2cnn(C)c2-c2c(F)c(Cl)cc(OC3CC3)c2C#N)cc2c(CN)n[nH]c(=O)c12 (single isomer, unassigned) [Example 16-78, (M)-2-[4-[4-(aminomethyl)-8-ethoxy-1-oxo-2H-phthalazin-6-yl]-2-methyl-pyrazol-3-yl]-4-chloro-6-(cyclopropoxy)-3-fluoro-benzonitrile]
- IC50 (PRMT5/MEP50 complex): 139 nM
- IC50 [1]: 17 nM

Structure (SMILES): CCOc1cc(-c2cnn(C)c2-c2c(F)c(Cl)c3ccccc3c2C#N)cc2c(CN)n[nH]c(=O)c12 (single isomer, unassigned) [Example 16-79, (P)-2-[4-[4-(aminomethyl)-8-ethoxy-1-oxo-2H-phthalazin-6-yl]-2-methyl-pyrazol-3-yl]-4-chloro-3-fluoro-naphthalene-1-carbonitrile]
- IC50 (PRMT5/MEP50 complex): 8.25 nM
- IC50 [1]: 33 nM

Structure (SMILES): CCOc1cc(-c2cnn(C)c2-c2c(F)c(Cl)c3ccccc3c2C#N)cc2c(CN)n[nH]c(=O)c12 (single isomer, unassigned) [Example 16-80, (M)-2-[4-[4-(aminomethyl)-8-ethoxy-1-oxo-2H-phthalazin-6-yl]-2-methyl-pyrazol-3-yl]-4-chloro-3-fluoro-naphthalene-1-carbonitrile]
- IC50 (PRMT5/MEP50 complex): 415 nM
- IC50 [1]: 13 nM

Structure (SMILES): CCOc1cc(-c2cnn(C)c2-c2c(F)c(C)c3ccccc3c2C#N)cc2c(CN)n[nH]c(=O)c12 (single isomer, unassigned) [Example 16-81, (P)-2-[4-[4-(aminomethyl)-8-ethoxy-1-oxo-2H-phthalazin-6-yl]-2-methyl-pyrazol-3-yl]-3-fluoro-4-methyl-naphthalene-1-carbonitrile]
- IC50 (PRMT5/MEP50 complex): 42.1 nM
- IC50 ([1]; Homo sapiens, HCT-116, 240 h): 9 nM

Structure (SMILES): CCOc1cc(-c2cnn(C)c2-c2c(F)c(C)c3ccccc3c2C#N)cc2c(CN)n[nH]c(=O)c12 (single isomer, unassigned) [Example 16-82, (M)-2-[4-[4-(aminomethyl)-8-ethoxy-1-oxo-2H-phthalazin-6-yl]-2-methyl-pyrazol-3-yl]-3-fluoro-4-methyl-naphthalene-1-carbonitrile]
- IC50 (PRMT5/MEP50 complex): 1180 nM
- IC50 [1]: 14 nM

Structure (SMILES): Cn1ncc(-c2ccc3c(=O)[nH]nc(CN)c3c2)c1-c1c(F)cc2c(c1C#N)OCCO2 (single isomer, unassigned) [Example 16-89, (P)-6-[4-[4-(aminomethyl)-1-oxo-2H-phthalazin-6-yl]-2-methyl-pyrazol-3-yl]-7-fluoro-2,3-dihydro-1,4-benzodioxine-5-carbonitrile]
- IC50 (PRMT5/MEP50 complex): 1360 nM
- IC50 [1]: 514 nM

Structure (SMILES): Cn1ncc(-c2ccc3c(=O)[nH]nc(CN)c3c2)c1-c1c(F)cc2c(c1C#N)OCCO2 (single isomer, unassigned) [Example 16-90, (M)-6-[4-[4-(aminomethyl)-1-oxo-2H-phthalazin-6-yl]-2-methyl-pyrazol-3-yl]-7-fluoro-2,3-dihydro-1,4-benzodioxine-5-carbonitrile]
- IC50 (PRMT5/MEP50 complex): 248 nM
- IC50 [1]: 138 nM

Structure (SMILES): Cn1ncc(-c2ccc3c(=O)[nH]nc(CN)c3c2)c1-c1c(C#N)cc2ncccc2c1F (single isomer, unassigned) [Example 16-91, (P)-6-[4-[4-(aminomethyl)-1-oxo-2H-phthalazin-6-yl]-2-methyl-pyrazol-3-yl]-5-fluoro-quinoline-7-carbonitrile]
- IC50 (PRMT5/MEP50 complex): 454 nM
- IC50 [1]: 2670 nM

Structure (SMILES): Cn1ncc(-c2ccc3c(=O)[nH]nc(CN)c3c2)c1-c1c(C#N)cc2ncccc2c1F (single isomer, unassigned) [Example 16-92, (M)-6-[4-[4-(aminomethyl)-1-oxo-2H-phthalazin-6-yl]-2-methyl-pyrazol-3-yl]-5-fluoro-quinoline-7-carbonitrile]
- IC50 (PRMT5/MEP50 complex): 2040 nM
- IC50 [1]: 403 nM

Structure (SMILES): Cc1c(F)c(-c2c(-c3cc(C)c4c(=O)[nH]nc(CN)c4c3)cnn2C)c(C#N)c2ncc(Cl)cc12 (single isomer, unassigned) [Example 16-95, (P)-7-(4-(4-(aminomethyl)-8-methyl-1-oxo-1,2-dihydrophthalazin-6-yl)-1-methyl-1H-pyrazol-5-yl)-3-chloro-6-fluoro-5-methylquinoline-8-carbonitrile]
- IC50 (PRMT5/MEP50 complex): 800 nM
- IC50 ([1]; Homo sapiens, HCT-116, 240 h): 1230 nM

Structure (SMILES): CCOc1cc(-c2cnn(C)c2-c2c(F)c(C)c3cc(Cl)cnc3c2C#N)cc2c(CN)n[nH]c(=O)c12 (single isomer, unassigned) [Example 16-99, (P)-7-(4-(4-(aminomethyl)-8-ethoxy-1-oxo-1,2-dihydrophthalazin-6-yl)-1-methyl-1H-pyrazol-5-yl)-3-chloro-6-fluoro-5-methylquinoline-8-carbonitrile]
- IC50 (PRMT5/MEP50 complex): 9870 nM
- IC50 ([1]; Homo sapiens, HCT-116, 240 h): 10000 nM

Structure (SMILES): Cc1cc(-c2c(-c3ccc4c(=O)[nH]nc(CN)c4c3)cnn2C)n2c1CCCC2=O [Example 4-257, 4-(aminomethyl)-6-[1-methyl-5-(1-methyl-5-oxo-7,8-dihydro-6H-indolizin-3-yl)pyrazol-4-yl]-2H-phthalazin-1-one]
- IC50 (PRMT5/MEP50 complex): 547 nM
- IC50 ([1]; Homo sapiens, HCT-116, 240 h): 618 nM

Structure (SMILES): Cn1ncc(-c2ccc3c(=O)[nH]nc(CN)c3c2)c1-c1ccc2n1C(=O)CC2 [Example 4-260, 4-(aminomethyl)-6-[1-methyl-5-(5-oxo-6,7-dihydropyrrolizin-3-yl)pyrazol-4-yl]-2H-phthalazin-1-one]
- IC50 (PRMT5/MEP50 complex): 575 nM
- IC50 ([1]; Homo sapiens, HCT-116, 240 h): 2680 nM
